Measured values as given in PubChem BioAssay AID248 (DTP/NCI, 2004).
Where “and” joins values, the source holds several entries; their conditions need not be identical. Equal entries are not always repeated. Toxic doses and inconclusive results are not listed. Rule as the data show it: active = T/C of 150% or more; inactive = T/C below 125%.

Test system: L1210 leukemia ip in BDF1 mice, survival T/C
Assay: NCI In Vivo Anticancer Drug Screen. Data for tumor model L1210 Leukemia (intraperitoneal) in B6D2F1 (BDF1) mice
Conditions: endpoint: mean survival time, higher = longer survival
Outline: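 Transplanted-tumor mice were given test agent; controls received vehicle only. Survival readings from the two groups were divided (treated over control).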

[1] = dose: 125.0 mg/kg/injection, schedule: Q01DX Z (ip), vehicle: carboxymethylcellulose (CMC)
[2] = dose: 500.0 mg/kg/injection, schedule: Q01DX Z (ip), vehicle: carboxymethylcellulose (CMC)
[3] = dose: 100.0 mg/kg/injection, schedule: Q01DX009 (ip), vehicle: saline
[4] = dose: 200.0 mg/kg/injection, schedule: Q01DX009 (ip), vehicle: saline
[5] = dose: 400.0 mg/kg/injection, schedule: Q01DX009 (ip), vehicle: saline
[6] = dose: 100.0 mg/kg/injection, schedule: Q01DX001 (ip), vehicle: Klucel (hydroxypropylcellulose) (HPC)
[7] = dose: 100.0 mg/kg/injection, schedule: Q04DX002 (ip), vehicle: Klucel (hydroxypropylcellulose) (HPC)
[8] = dose: 200.0 mg/kg/injection, schedule: Q04DX002 (ip), vehicle: Klucel (hydroxypropylcellulose) (HPC)
[9] = dose: 400.0 mg/kg/injection, schedule: Q04DX002 (ip), vehicle: Klucel (hydroxypropylcellulose) (HPC)
[10] = dose: 100.0 mg/kg/injection, schedule: Q01DX009 (ip), vehicle: Klucel (hydroxypropylcellulose) (HPC)
[11] = dose: 200.0 mg/kg/injection, schedule: Q01DX009 (ip), vehicle: Klucel (hydroxypropylcellulose) (HPC)
[12] = dose: 400.0 mg/kg/injection, schedule: Q01DX009 (ip), vehicle: Klucel (hydroxypropylcellulose) (HPC)
[13] = dose: 200.0 mg/kg/injection, schedule: Q01DX009 (ip), vehicle: saline with Tween-80
[14] = dose: 100.0 mg/kg/injection, schedule: Q04DX003 (ip), vehicle: saline with Tween-80
[15] = dose: 200.0 mg/kg/injection, schedule: Q04DX003 (ip), vehicle: saline with Tween-80
[16] = dose: 400.0 mg/kg/injection, schedule: Q04DX003 (ip), vehicle: saline with Tween-80
[17] = dose: 100.0 mg/kg/injection, schedule: Q04DX002 (ip), vehicle: saline
[18] = dose: 200.0 mg/kg/injection, schedule: Q04DX002 (ip), vehicle: saline
[19] = dose: 400.0 mg/kg/injection, schedule: Q04DX002 (ip), vehicle: saline
[20] = dose: 100.0 mg/kg/injection, schedule: Q01DX001 (ip), vehicle: carboxymethylcellulose (CMC)
[21] = dose: 200.0 mg/kg/injection, schedule: Q01DX001 (ip), vehicle: carboxymethylcellulose (CMC)
[22] = dose: 400.0 mg/kg/injection, schedule: Q01DX001 (ip), vehicle: carboxymethylcellulose (CMC)
[23] = dose: 100.0 mg/kg/injection, schedule: Q01DX001 (ip), vehicle: saline
[24] = dose: 200.0 mg/kg/injection, schedule: Q01DX001 (ip), vehicle: saline
[25] = dose: 400.0 mg/kg/injection, schedule: Q01DX001 (ip), vehicle: saline
[26] = dose: 50.0 mg/kg/injection, schedule: Q01DX009 (ip), vehicle: saline with Tween-80

Measured: T/C

CCn1cnc2c(SC3CCCC3)ncnc21
inactive: dose: 15.0 mg/kg/injection, schedule: Q01DX015 (ip), vehicle: carboxymethylcellulose (CMC) 96 % of control | dose: 30.0 mg/kg/injection, schedule: Q01DX015 (ip), vehicle: carboxymethylcellulose (CMC) 104 % of control | dose: 62.0 mg/kg/injection, schedule: Q01DX015 (ip), vehicle: carboxymethylcellulose (CMC) 110 % of control | dose: 62.0 mg/kg/injection, schedule: Q01DX Z (ip), vehicle: carboxymethylcellulose (CMC) 95 % of control | dose: 125.0 mg/kg/injection, schedule: Q01DX015 (ip), vehicle: carboxymethylcellulose (CMC) 124 % of control | [1] 113 % of control | [2] 101 % of control

CS(=O)c1ccc([N+](=O)[O-])cc1 (centres undefined)
inactive: dose: 100.0 mg/kg/injection, schedule: Q04DX003 (ip), vehicle: Klucel (hydroxypropylcellulose) (HPC) 98 % of control | dose: 200.0 mg/kg/injection, schedule: Q04DX003 (ip), vehicle: Klucel (hydroxypropylcellulose) (HPC) 104 % of control | dose: 400.0 mg/kg/injection, schedule: Q04DX003 (ip), vehicle: Klucel (hydroxypropylcellulose) (HPC) 105 % of control

O=[N+]([O-])c1ccc(N/N=C/C(O)C(O)C(O)CO)cc1 (centres undefined)
inactive: dose: 50.0 mg/kg/injection, schedule: Q04DX002 (ip), vehicle: saline with Tween-80 106 % of control | dose: 100.0 mg/kg/injection, schedule: Q04DX002 (ip), vehicle: saline with Tween-80 106 % of control | dose: 200.0 mg/kg/injection, schedule: Q04DX002 (ip), vehicle: saline with Tween-80 87 % of control

CCOC1=C(Br)C=CN(S(=O)(=O)c2ccc(C)cc2)c2ccccc21
inactive: [3] 97 % of control | [4] 94 % of control | [5] 93 % of control

CN(CCC#N)C(=O)Nc1ccccc1
inactive: dose: 100.0 mg/kg/injection, schedule: Q01DX Z (ip), vehicle: methylcellulose (MC) 103 % of control | dose: 200.0 mg/kg/injection, schedule: Q01DX Z (ip), vehicle: methylcellulose (MC) 95 % of control

CCCCCCCCOc1ccc(C(c2ccccc2)(c2ccccc2)c2ccccc2)cc1
inactive: [6] 90 % of control | dose: 200.0 mg/kg/injection, schedule: Q01DX001 (ip), vehicle: Klucel (hydroxypropylcellulose) (HPC) 89 % of control | dose: 400.0 mg/kg/injection, schedule: Q01DX001 (ip), vehicle: Klucel (hydroxypropylcellulose) (HPC) 89 % of control

CCCCCCNC(=O)COc1ccc(Cl)cc1
inactive: [7] 97 % of control | [8] 93 % of control | [9] 101 % of control

C/C(CC(O)(C(F)(F)F)C(F)(F)F)=N\Nc1ccccc1
inactive: dose: 100.0 mg/kg/injection, schedule: Q04DX003 (ip), vehicle: other 102 % of control | dose: 200.0 mg/kg/injection, schedule: Q04DX003 (ip), vehicle: other 97 % of control | dose: 400.0 mg/kg/injection, schedule: Q04DX003 (ip), vehicle: other 106 % of control

CCCCC(C(C)=O)C(C)=O
inactive: [10] 100 % of control | [7] 86 % of control | [11] 100 % of control | [8] 93 % of control | [12] 89 % of control | [9] 86 % of control

O=C(CCc1ccc(O)cc1)N/N=C/c1ccc2c(c1)OCO2
inactive: [13] 97 % of control | dose: 400.0 mg/kg/injection, schedule: Q01DX009 (ip), vehicle: saline with Tween-80 87 % of control

C=C(C)C(=O)N(C)C
inactive: [3] 105 % of control | [4] 113 % of control | [5] 103 % of control

NCCCS
inactive: dose: 75.0 mg/kg/injection, schedule: Q01DX001 (ip), vehicle: saline 96 % of control | dose: 150.0 mg/kg/injection, schedule: Q01DX001 (ip), vehicle: saline 96 % of control

C=CCOc1ncnc2nc[nH]c12
inactive: [14] 102 % of control | [15] 96 % of control | [16] 101 % of control

C/C=C/C=C\COC(=O)c1ccccc1OCC
inactive: [17] 98 % of control and 107 % of control | [18] 101 % of control and 109 % of control | [19] 109 % of control | dose: 800.0 mg/kg/injection, schedule: Q04DX002 (ip), vehicle: saline 106 % of control

OC1OCC(OCc2ccccc2)C(OCc2ccccc2)C1OCc1ccccc1 (centres undefined)
inactive: [20] 101 % of control | [21] 101 % of control | [22] 95 % of control

CCOC(=O)/C(C)=C\C1C(C)=CCCC1(C)C (centres undefined)
inactive: [10] 104 % of control | [11] 102 % of control | [12] 96 % of control

OC1CC2C=CC1C2 (centres undefined)
inactive: [20] 93 % of control | [23] 107 % of control | [21] 95 % of control | [24] 88 % of control | [22] 101 % of control | [25] 109 % of control

CCCCNC(=O)N(CC)c1cccc(C)c1
inactive: [7] 105 % of control | [8] 118 % of control | [9] 102 % of control

O=C(O)/C(=C\c1ccc(Cl)cc1)c1ccc(C(F)(F)F)cc1[N+](=O)[O-]
inactive: [14] 96 % of control | [15] 94 % of control | [16] 92 % of control

CC(=O)NC1CCC(C)CC1 (centres undefined)
inactive: dose: 50.0 mg/kg/injection, schedule: Q01DX001 (ip), vehicle: saline 109 % of control | [6] 93 % of control | [23] 93 % of control | [24] 102 % of control

CCCC(SCC(=O)O)SCC(=O)O
inactive: [3] 93 % of control | [17] 97 % of control | [4] 100 % of control | [18] 100 % of control | [19] 95 % of control

COc1ccc(/C=N\NC(=O)c2ccc(Cl)c(Cl)c2)cc1OC
inactive: [26] 117 % of control | dose: 100.0 mg/kg/injection, schedule: Q01DX009 (ip), vehicle: saline with Tween-80 93 % of control | [13] 90 % of control

NC(C=O)C(O)C(O)C(O)CO (centres undefined)
inactive: dose: 50.0 mg/kg/injection, schedule: Q01DX009 (ip), vehicle: saline 94 % of control | [23] 104 % of control and 93 % of control | [3] 94 % of control | [1] 100 % of control | [24] 105 % of control and 102 % of control | [4] 94 % of control | dose: 250.0 mg/kg/injection, schedule: Q01DX Z (ip), vehicle: carboxymethylcellulose (CMC) 94 % of control | [25] 102 % of control and 96 % of control | [2] 96 % of control | dose: 750.0 mg/kg/injection, schedule: Q01DX009 (ip), vehicle: saline 100 % of control | dose: 1000.0 mg/kg/injection, schedule: Q01DX Z (ip), vehicle: carboxymethylcellulose (CMC) 95 % of control | dose: 1500.0 mg/kg/injection, schedule: Q01DX009 (ip), vehicle: saline 104 % of control | dose: 3000.0 mg/kg/injection, schedule: Q01DX009 (ip), vehicle: saline 104 % of control and 107 % of control | dose: 5000.0 mg/kg/injection, schedule: Q01DX009 (ip), vehicle: saline 98 % of control

C#CC1(NC(=S)Nc2ccc(C)cc2)CCCCC1
inactive: dose: 100.0 mg/kg/injection, schedule: Q01DX009 (ip), vehicle: carboxymethylcellulose (CMC) 100 % of control and 92 % of control | dose: 200.0 mg/kg/injection, schedule: Q01DX009 (ip), vehicle: carboxymethylcellulose (CMC) 95 % of control and 100 % of control | dose: 400.0 mg/kg/injection, schedule: Q01DX009 (ip), vehicle: carboxymethylcellulose (CMC) 106 % of control and 113 % of control

COc1cc(C)cc(C(=O)O)c1O
inactive: [21] 90 % of control

CCCOCCC(c1ccccc1)(c1ccccc1)c1ccccc1
inactive: dose: 12.5 mg/kg/injection, schedule: Q01DX009 (ip), vehicle: saline with Tween-80 98 % of control | dose: 25.0 mg/kg/injection, schedule: Q01DX009 (ip), vehicle: saline with Tween-80 98 % of control | [26] 95 % of control | [13] 87 % of control
